Test systems include UACC-257; SNB-75; HOP-62; OVCAR-4; OVCAR-5; ACHN; Malme-3M; SK-MEL-2; SF-539; NCI-H226; SF-295; NCI-H460; U-251; RXF 393; T47D; TK-10; OVCAR-8; M14; HL-60; HOP-92.
Experiment in all cases: NCI anticancer screen, dose series, 48 h

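1) Cells in 96-well plates. 2) Compound, 48 h, 5 concentrations. 3) Linear interpolation between surrounding doses. 4) Unreached endpoint = highest concentration. Here, GI50 denotes the concentration required for 50% inhibition of growth.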 Active and inactive are the calls of the source. Rule as the data show it: active = GI50 up to about 1.1 µM and inactive = higher. Bounds are passed on as bounds.

Regarding `CC(C)(C)c1ccc(NS(=O)(=O)c2ccc(N)cc2)cc1`, the GI50 was 38.4 µM (inactive) in the experiment with UACC-257; 30.8 µM (inactive) in the experiment with SNB-75; 0.634 µM (active) in the experiment with HOP-62; 35.8 µM (inactive) with OVCAR-4; 31.5 µM (inactive) with OVCAR-5; 29.4 µM (inactive) in the experiment with ACHN. The GI50 is 19.5 µM (inactive) with Malme-3M; 19.5 µM (inactive) with SK-MEL-2; 25.8 µM (inactive) with SF-539; 22.2 µM (inactive) in the experiment on NCI-H226; 1.9 µM (inactive) in the experiment on SF-295; 33.7 µM (inactive) with NCI-H460. Besides, the GI50 in the experiment with U-251 is 19.3 µM (inactive); in the experiment on RXF 393, 29.1 µM (inactive); in the experiment with T47D it was 28.3 µM (inactive); in the experiment with TK-10 it was 59 µM (inactive); in the experiment on OVCAR-8, 27.5 µM (inactive); with M14 it was 20.5 µM (inactive). The GI50 in the experiment on HL-60 was 18.1 µM (inactive).
Regarding `OCC(Cn1cncn1)(c1ccc(F)cc1F)n1cncn1` (centres undefined), the GI50 in the experiment with UACC-257, in the experiment with SNB-75, with HOP-62, in the experiment with OVCAR-5, with ACHN and with Malme-3M was > 100 µM (inactive) each time. Also, the GI50 with SK-MEL-2, in the experiment on SF-539, in the experiment with NCI-H226, in the experiment on SF-295, in the experiment with NCI-H460 and with U-251 was > 100 µM (inactive) each time. For the same molecule, the GI50 with RXF 393, in the experiment on T47D, in the experiment with TK-10, with OVCAR-8, in the experiment with M14 and with HL-60 was > 100 µM (inactive) in each case.
As for `COc1ccc(C(=O)/C=C/c2ccc(O)c(O)c2F)c(OC)c1`, the GI50 with UACC-257 was 9.08 µM (inactive); in the experiment on HOP-92 it was 20 µM (inactive); in the experiment with SNB-75, 7.52 µM (inactive); in the experiment with HOP-62, 4.36 µM (inactive); in the experiment with OVCAR-4 it was 4.09 µM (inactive); in the experiment with OVCAR-5, 10.7 µM (inactive). Further, the GI50 with ACHN was 3.01 µM (inactive); with Malme-3M, 7.64 µM (inactive); in the experiment with SK-MEL-2, 3.05 µM (inactive); in the experiment with SF-539 it was 3.2 µM (inactive); with NCI-H226 it was 11.4 µM (inactive); in the experiment on SF-295, 5.41 µM (inactive). Further, the GI50 with NCI-H460 is 2.75 µM (inactive); in the experiment with U-251, 2.94 µM (inactive); in the experiment with RXF 393, 4.35 µM (inactive); in the experiment with T47D it was 0.649 µM (active); with TK-10, 9.18 µM (inactive); in the experiment with OVCAR-8, 7.76 µM (inactive). In the experiment with M14, the GI50 is 7.71 µM (inactive).
With `CC1(C)OC2COC3([C@@H]4OC(C)(C)O[C@@H]4CO)OC(C)(C)OC3C2O1` (some centres undefined), the GI50 in the experiment with UACC-257, in the experiment with HOP-92, in the experiment with SNB-75, with HOP-62, in the experiment on OVCAR-4 and in the experiment on OVCAR-5 was > 100 µM (inactive) each time. Besides, the GI50 in the experiment with ACHN, in the experiment with SK-MEL-2, in the experiment on SF-539, in the experiment on NCI-H226, in the experiment with SF-295 and with NCI-H460 was > 100 µM (inactive) each time. Besides, the GI50 with U-251, in the experiment with RXF 393, in the experiment on T47D, in the experiment with OVCAR-8 and in the experiment with M14 was > 100 µM (inactive) in each case.
For the molecule `Cc1cn(C(C)OCCN2C(=O)c3ccccc3C2=O)c(=O)[nH]c1=O` (centres undefined), the GI50 in the experiment on UACC-257, in the experiment with HOP-92, with SNB-75, in the experiment on HOP-62, in the experiment on OVCAR-4 and in the experiment with OVCAR-5 was > 100 µM (inactive) each time. Besides, the GI50 in the experiment with ACHN, with SK-MEL-2, in the experiment on SF-539, in the experiment on NCI-H226, in the experiment on SF-295 and in the experiment on NCI-H460 was > 100 µM (inactive) each time. Besides, the GI50 with U-251, in the experiment with RXF 393, with T47D, in the experiment on OVCAR-8 and with M14 was > 100 µM (inactive) throughout.
Regarding `Cc1nc2c(cc1C(=O)NN)c(=O)n(C)c(=O)n2C`, the GI50 with UACC-257, with SNB-75, in the experiment with HOP-62, in the experiment on OVCAR-4, in the experiment on OVCAR-5 and with ACHN was > 100 µM (inactive) in each case. Further, the GI50 in the experiment with SK-MEL-2, in the experiment on NCI-H226, in the experiment with SF-295, in the experiment on NCI-H460, in the experiment with U-251 and in the experiment with RXF 393 was > 100 µM (inactive) each time. Further, the GI50 in the experiment on T47D, with TK-10, with OVCAR-8 and in the experiment with M14 was > 100 µM (inactive) each time.
`CN(C)CC1CCC/C(=C\c2ccc(Cl)cc2)C1=O` (centres undefined): the GI50 in the experiment on UACC-257 is 4.91 µM (inactive); in the experiment with HOP-92 it was 3.15 µM (inactive); with SNB-75, 3.25 µM (inactive); in the experiment with HOP-62 it was 15.8 µM (inactive); with OVCAR-4 it was 2.79 µM (inactive); in the experiment with OVCAR-5, 16.9 µM (inactive). The GI50 with ACHN is 2.57 µM (inactive); in the experiment with Malme-3M it was 1.91 µM (inactive); in the experiment on SK-MEL-2, 1.41 µM (inactive); in the experiment with SF-539 it was 10.6 µM (inactive); in the experiment on NCI-H226, 14.7 µM (inactive); in the experiment with SF-295 it was 14.2 µM (inactive). The GI50 with NCI-H460 was 17.3 µM (inactive); in the experiment on U-251, 3.71 µM (inactive); in the experiment with T47D it was 3.49 µM (inactive); in the experiment on TK-10, 3.9 µM (inactive); with OVCAR-8, 3.85 µM (inactive); in the experiment on M14, 2.28 µM (inactive). In addition, the GI50 in the experiment with HL-60 is 1.37 µM (inactive).
For `O=C(NNC(=O)c1ccco1)c1ccco1`, the GI50 in the experiment with UACC-257 is > 100 µM (inactive); in the experiment on SNB-75, 55 µM (inactive); in the experiment on HOP-62, > 100 µM (inactive); with OVCAR-4, > 100 µM (inactive); in the experiment on OVCAR-5, > 100 µM (inactive); in the experiment on Malme-3M, 39.6 µM (inactive). Moreover, the GI50 with SK-MEL-2, in the experiment with SF-539, in the experiment on NCI-H226, with SF-295, in the experiment with NCI-H460 and in the experiment with U-251 was > 100 µM (inactive) in each case. Besides, the GI50 with RXF 393, with T47D, with TK-10, in the experiment with OVCAR-8, in the experiment on M14 and in the experiment with HL-60 was > 100 µM (inactive) in each case.
On to `CC1=NN(c2nc(N)nc(/C(C#N)=C\c3ccc([N+](=O)[O-])s3)n2)C(C)(C)C1`, for which the GI50 is 0.211 µM (active) in the experiment on UACC-257; 0.302 µM (active) with HOP-92; 0.764 µM (active) in the experiment on SNB-75; 0.316 µM (active) in the experiment with HOP-62; 2.55 µM (inactive) in the experiment with OVCAR-4; 3.46 µM (inactive) with OVCAR-5. Moreover, the GI50 with ACHN was 0.261 µM (active); with Malme-3M, 0.764 µM (active); in the experiment on SK-MEL-2, 0.375 µM (active); in the experiment with SF-539, 0.169 µM (active); in the experiment with NCI-H226, 2.39 µM (inactive); in the experiment on SF-295 it was 2.96 µM (inactive). Moreover, the GI50 in the experiment on NCI-H460 was 0.209 µM (active); with U-251, 0.104 µM (active); with RXF 393, 0.236 µM (active); in the experiment with T47D it was 0.0743 µM (active); in the experiment with TK-10, 0.507 µM (active); in the experiment on OVCAR-8, 0.113 µM (active). In addition, the GI50 with M14 is 0.298 µM (active).
`COc1ccc(NC(C)c2ccncc2)cc1` (centres undefined): the GI50 in the experiment on UACC-257 is > 10 µM (inactive); in the experiment with HOP-92, > 100 µM (inactive); with SNB-75 it was > 100 µM (inactive); in the experiment on HOP-62, > 100 µM (inactive); in the experiment with OVCAR-4, > 100 µM (inactive); with OVCAR-5, > 100 µM (inactive). The GI50 with ACHN, with Malme-3M, in the experiment with SK-MEL-2, in the experiment with SF-539, with NCI-H226 and in the experiment with SF-295 was > 100 µM (inactive) each time. For the same molecule, the GI50 with NCI-H460, in the experiment on U-251, in the experiment on RXF 393, in the experiment on T47D, with TK-10 and in the experiment on OVCAR-8 was > 100 µM (inactive) throughout. In addition, the GI50 in the experiment on M14 was > 100 µM (inactive).
For the molecule `O=C(NC(=S)Nc1ccc([N+](=O)[O-])cc1)c1ccc2c(c1)Sc1ccccc1O2`, the GI50 is > 100 µM (inactive) with UACC-257; 37.3 µM (inactive) in the experiment on HOP-92; 13.8 µM (inactive) in the experiment on SNB-75; 78.5 µM (inactive) in the experiment with HOP-62; > 100 µM (inactive) with OVCAR-5; 49.9 µM (inactive) in the experiment on ACHN. Also, the GI50 with Malme-3M was 65.8 µM (inactive); with SK-MEL-2 it was 99.1 µM (inactive); in the experiment with SF-539, 45.7 µM (inactive); in the experiment on NCI-H226, > 100 µM (inactive); in the experiment on SF-295, 89.1 µM (inactive); in the experiment on NCI-H460, > 100 µM (inactive). Besides, the GI50 in the experiment with U-251 is 37 µM (inactive); in the experiment with T47D, 24.6 µM (inactive); in the experiment on TK-10, 44.2 µM (inactive); in the experiment on OVCAR-8, > 100 µM (inactive); with M14 it was > 100 µM (inactive); with HL-60, > 100 µM (inactive).
